Numbered stars: 1 amine (or outer) side, 2 acyl side, 3 side chain; on linkers, the order of the positions; unused ones are H or OH. Square brackets hold non-standard residues; d marks the D form. Side chains are listed from the residue outwards. Peptide text beside a SMILES is read from it. * marks the point of attachment. C18 diacid = O=C(O)CCCCCCCCCCCCCCCCC(=O)*; γGlu = O=C(O)[C@H](CCC(=O)[*:2])N[*:1]; Palmitoyl = CCCCCCCCCCCCCCCC(=O)*; αMeF = C[C@](N)(Cc1ccccc1)C(=O)O; αMeK = C[C@](N)(CCCCN)C(=O)O; Lauroyl = CCCCCCCCCCCC(=O)*; αMeS = C[C@](N)(CO)C(=O)O; AEEA = NCCOCCOCC(=O)O; Aib = CC(C)(N)C(=O)O
Columns and labels:
[1] = target: T1, porcine pancreatic pepsin (Sus scrofa, UniProt P00791); experiment: Proteolytic resistance to pepsin (% remaining intact peptide, RP-HPLC AUC); type: in vitro ADME; details: t = 0; 37° C., pH 2.0
T1 construct: purchased Sigma P7012
T1 sequence (P00791 60-385): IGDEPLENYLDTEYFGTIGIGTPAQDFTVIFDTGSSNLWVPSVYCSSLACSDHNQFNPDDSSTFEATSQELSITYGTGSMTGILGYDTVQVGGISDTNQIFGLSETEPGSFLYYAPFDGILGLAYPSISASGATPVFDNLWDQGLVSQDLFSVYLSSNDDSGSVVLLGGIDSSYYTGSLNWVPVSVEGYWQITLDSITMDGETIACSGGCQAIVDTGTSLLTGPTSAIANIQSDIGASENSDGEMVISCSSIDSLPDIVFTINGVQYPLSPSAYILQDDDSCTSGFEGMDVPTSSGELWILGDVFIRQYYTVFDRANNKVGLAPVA
Procedure: Pepsin: Lyophilized porcine pancreatic pepsin (Sigma: P7012) was reconstituted to afford a solution of 200 μg/mL (˜500 units/mL) in assay buffer (0.1 M HCl, pH 2.0) to give the enzyme stock solution. […] Ratio enzyme (units):peptide (moles) ˜1:6. […] Ratio enzyme (units):peptide (μmoles) ˜2:1.
Lyophilized porcine pancreatic pepsin (Sigma: P7012) was reconstituted to […] (˜500 units/mL) in assay buffer ([…], pH 2.0) to give the enzyme stock solution.

[2] = system: recombinant α-chymotrypsin; experiment: Proteolytic resistance to α-chymotrypsin (% remaining intact peptide, RP-HPLC AUC); details: t = 0; 37° C., pH 7.8
Procedure: (§2) Ratio enzyme (units):peptide (μmoles) ˜1:33. […] Ratio enzyme (units):peptide (μmoles) ˜1:2.5.
(§3) 15 μL aliquots (˜15 μg initial peptide) of the peptide-enzyme mixture are periodically withdrawn (t=0, 30 mins, 1 hr, 2 hr, 4 hr, 8 hr, 24 hr) and quenched immediately by addition to an equal volume (15 μL) of 5% TFA (v/v) in 1:1 water/acetonitrile to arrest proteolytic activity. 20 μL aliquots (˜10 μg initial peptide) are analysed by LC/MS and/or analytical RP-HPLC as follows: LC/MS method: Agilent Polaris C8-A column (4.6×100 mm, 3 micron) elutes with a linear binary gradient of 10-90% MeCN (0.1% TFA v/v) in water (0.1% TFA v/v) over 30 mins at 1.5 mL min^−1 at ambient temperature with detection by both UV absorption at 210 nm and ionization using a Waters 3100 mass detector (ESI^+ mode). Peptide fragments deriving from enzymatic hydrolysis are identified by molecular weight, allowing location of the site of cleavage. Analytical RP-HPLC method: Agilent Polaris C8-A column (4.6×100 mm, 3 micron) elutes with a linear binary gradient of 10-90% MeCN (0.1% TFA v/v) in water (0.1% TFA v/v) over either 10 or 15 mins at 1.5 mL min^−1 at 40° C. with detection by UV absorption at 210 nm. Manual integration (AUC) allows estimation of remaining intact peptide over the time course of the experiment.
(§4) 25 μL aliquots (˜6 μg initial peptide) are analysed by LC/MS and/or analytical RP-HPLC as follows: LC/MS method: Agilent Polaris C8-A column (4.6×100 mm, 3 micron) elutes with a linear binary gradient of 10-90% MeCN (0.1% TFA v/v) in water (0.1% TFA v/v) over 30 mins at 1.5 mL min^−1 at ambient temperature with detection by both UV absorption at 210 nm and ionization using a Waters 3100 mass detector (ESI±mode). Peptide fragments deriving from enzymatic hydrolysis are identified by molecular weight, allowing location of the site of cleavage. Analytical RP-HPLC method: Agilent Polaris C8-A column (4.6×100 mm, 3 micron) elutes with a linear binary gradient of 10-90% MeCN (0.1% TFA v/v) in water (0.1% TFA v/v) over either 10 or 15 mins at 1.5 mL min^−1 at 40° C. with detection by UV absorption at 210 nm. Manual integration (AUC) allows estimation of remaining intact peptide over the time course of the experiment.

[3] = as above; details: recombinant α-chymotrypsin in assay buffer, pH 7.8
Procedure: as §2, §3, §4

recombinant Neprilysin = target: T2, recombinant Neprilysin (Homo sapiens, UniProt P08473); experiment: Proteolytic resistance to neprilysin (% remaining peptide, RP-HPLC AUC); type: in vitro ADME; details: t = 0 (baseline); 37° C., pH 8.3; enzyme:peptide ~1:33 for non-lipidated, ~1:2.5 for lipidated peptides
T2 construct: purchased R&D Systems 1182-ZNC-010
T2 sequence (P08473 whole entry): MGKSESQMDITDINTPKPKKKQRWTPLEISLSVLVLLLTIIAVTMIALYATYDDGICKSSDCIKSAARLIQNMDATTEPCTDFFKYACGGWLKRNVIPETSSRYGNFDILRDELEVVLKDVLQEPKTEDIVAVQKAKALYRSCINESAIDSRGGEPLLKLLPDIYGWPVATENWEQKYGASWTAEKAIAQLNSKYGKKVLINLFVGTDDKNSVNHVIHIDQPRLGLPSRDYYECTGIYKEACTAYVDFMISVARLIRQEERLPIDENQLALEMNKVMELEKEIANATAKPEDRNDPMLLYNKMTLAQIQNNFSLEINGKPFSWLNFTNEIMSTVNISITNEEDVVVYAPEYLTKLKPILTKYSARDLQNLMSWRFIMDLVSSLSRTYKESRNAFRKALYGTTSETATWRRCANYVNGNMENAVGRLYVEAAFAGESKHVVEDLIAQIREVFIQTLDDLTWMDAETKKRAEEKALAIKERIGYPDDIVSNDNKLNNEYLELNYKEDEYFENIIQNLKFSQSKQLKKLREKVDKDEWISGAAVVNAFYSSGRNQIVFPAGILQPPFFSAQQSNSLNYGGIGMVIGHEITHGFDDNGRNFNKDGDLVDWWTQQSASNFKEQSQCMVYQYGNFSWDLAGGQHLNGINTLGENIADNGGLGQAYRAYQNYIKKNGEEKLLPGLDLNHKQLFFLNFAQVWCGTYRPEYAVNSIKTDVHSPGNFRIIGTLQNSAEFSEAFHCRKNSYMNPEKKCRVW
Procedure: Ratio enzyme (units):peptide (moles) ˜1:33. […] Ratio enzyme (units):peptide (moles) ˜1:2.5.
15 μL aliquots (˜15 ng initial peptide) of the peptide-enzyme mixture were periodically withdrawn (t=0, 30 mins, 1 hr, 2 hr, 4 hr, 8 hr, 24 hr) and quenched immediately by addition to an equal volume (15 μL) of 5% TFA (v/v) in 1:1 water/acetonitrile to arrest proteolytic activity. 20 μL aliquots (˜10 ng initial peptide) were analyzed by LC/MS and/or analytical RP-HPLC as follows: LC/MS method: Agilent Polaris C8-A column (4.6×100 mm, 3 micron) eluted with a linear binary gradient of 10-90% MeCN (0.1% TFA v/v) in water (0.1% TFA v/v) over 30 mins at 1.5 mL min-1 at ambient temperature with detection by both UV absorption at 210 nm and ionization using a Waters 3100 mass detector (ESI+ mode). Peptide fragments deriving from enzymatic hydrolysis were identified by molecular weight, allowing location of the site of cleavage. Analytical RP-HPLC method: Agilent Polaris C8-A column (4.6×100 mm, 3 micron) eluted with a linear binary gradient of 10-90% MeCN (0.1% TFA v/v) in water (0.1% TFA v/v) over either 10 or 15 mins at 1.5 mL min^−1 at 40° C. with detection by UV absorption at 210 nm. Manual integration (AUC) allowed estimation of remaining intact peptide over the time course of the experiment.
25 μL aliquots (˜6 μg initial peptide) were analyzed by LC/MS and/or analytical RP-HPLC as follows: LC/MS method: Agilent Polaris C8-A column (4.6×100 mm, 3 micron) eluted with a linear binary gradient of 10-90% MeCN (0.1% TFA v/v) in water (0.1% TFA v/v) over 30 mins at 1.5 mL min^−1 at ambient temperature with detection by both UV absorption at 210 nm and ionization using a Waters 3100 mass detector (ESI^+ mode). Peptide fragments deriving from enzymatic hydrolysis were identified by molecular weight, allowing location of the site of cleavage. Analytical RP-HPLC method: Agilent Polaris C8-A column (4.6×100 mm, 3 micron) eluted with a linear binary gradient of 10-90% MeCN (0.1% TFA v/v) in water (0.1% TFA v/v) over either 10 or 15 mins at 1.5 mL min^−1 at 40° C. with detection by UV absorption at 210 nm. Manual integration (AUC) allowed estimation of remaining intact peptide over the time course of the experiment.

[4] = target: porcine pancreatic trypsin (Sus scrofa, UniProt P00761); experiment: Proteolytic resistance to trypsin (% remaining intact peptide, RP-HPLC AUC); type: in vitro ADME; details: t = 0; 37° C., pH 7.8
Sequence of porcine pancreatic trypsin (P00761 9-231): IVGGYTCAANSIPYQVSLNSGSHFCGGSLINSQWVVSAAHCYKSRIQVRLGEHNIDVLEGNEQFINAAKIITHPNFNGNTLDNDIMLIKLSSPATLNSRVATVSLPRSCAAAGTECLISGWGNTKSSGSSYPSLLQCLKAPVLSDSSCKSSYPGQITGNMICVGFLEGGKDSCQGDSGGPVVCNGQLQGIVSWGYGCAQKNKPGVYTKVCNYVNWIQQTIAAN
Procedure: Trypsin: Lyophilized porcine pancreatic trypsin (Sigma: T1426) was reconstituted to afford a solution of 100 μg/mL (˜300 units/mL) in assay buffer (50 mM Tris, 10 mM CaCl2), 150 mM NaCl, 1 mM HCl, adjusted to pH 7.8) to give the enzyme stock solution. […] Ratio enzyme (units):peptide (μmoles) ˜1:11. […] Ratio enzyme (units):peptide (μ moles) ˜1.2:1.
Lyophilized porcine pancreatic trypsin (Sigma: T7409) was reconstituted to 200 μg/mL (˜300 units/mL) in assay buffer (50 mM Tris, 10 mM CaCl2), 150 mM NaCl, 1 mM HCl, adjusted to pH 7.8) to give the enzyme stock solution. […] 15 μL aliquots (˜15 μg initial peptide) of the peptide-enzyme mixture were periodically withdrawn (t=0, 30 mins, 1 hr, 2 hr, 4 hr, 8 hr, 24 hr) and quenched immediately by addition to an equal volume (15 μL) of 5% TFA (v/v) in 1:1 water/acetonitrile to arrest proteolytic activity. 20 μL aliquots (˜10 μg initial peptide) were analysed by LC/MS and/or analytical RP-HPLC as follows: LC/MS method: Agilent Polaris C8-A column (4.6×100 mm, 3 micron) eluted with a linear binary gradient of 10-90% MeCN (0.1% TFA v/v) in water (0.1% TFA v/v) over 30 mins at 1.5 mL min^−1 at ambient temperature with detection by both UV absorption at 210 nm and ionization using a Waters 3100 mass detector (ESI^+ mode). Peptide fragments deriving from enzymatic hydrolysis were identified by molecular weight, allowing location of the site of cleavage. Analytical RP-HPLC method: Agilent Polaris C8-A column (4.6×100 mm, 3 micron) eluted with a linear binary gradient of 10-90% MeCN (0.1% TFA v/v) in water (0.1% TFA v/v) over either 10 or 15 mins at 1.5 mL min^−1 at 40° C. with detection by UV absorption at 210 nm. Manual integration (AUC) allowed estimation of remaining intact peptide over the time course of the experiment.
Lyophilized porcine pancreatic trypsin (Sigma: T7409) was reconstituted to 200 μg/mL (˜300 units/mL) in assay buffer (50 mM Tris, 10 mM CaCl2), 150 mM NaCl, 1 mM HCl, adjusted to pH 7.8) to give the enzyme stock solution. […] 25 μL aliquots (˜17 μg initial peptide) of the peptide-enzyme mixture were periodically withdrawn (t=0, 30 mins, 1 hr, 2 hr, 4 hr, 8 hr, 24 hr) and quenched immediately by addition to an equal volume (25 μL) of 5% TFA (v/v) in 1:1 water/acetonitrile to arrest proteolytic activity. 25 μL aliquots (˜8 μg initial peptide) were analysed by LC/MS and/or analytical RP-HPLC as follows: LC/MS method: Agilent Polaris C8-A column (4.6×100 mm, 3 micron) eluted with a linear binary gradient of 10-90% MeCN (0.1% TFA v/v) in water (0.1% TFA v/v) over 30 mins at 1.5 mL min^−1 at ambient temperature with detection by both UV absorption at 210 nm and ionization using a Waters 3100 mass detector (ESI^+ mode). Peptide fragments deriving from enzymatic hydrolysis were identified by molecular weight, allowing location of the site of cleavage. Analytical RP-HPLC method: Agilent Polaris C8-A column (4.6×100 mm, 3 micron) eluted with a linear binary gradient of 10-90% MeCN (0.1% TFA v/v) in water (0.1% TFA v/v) over either 10 or 15 mins at 1.5 mL min^−1 at 40° C. with detection by UV absorption at 210 nm. Manual integration (AUC) allowed estimation of remaining intact peptide over the time course of the experiment.

[5] = Proteolytic resistance to fasted-state simulated intestinal fluid (FASSIF/Pancreatin); type: in vitro ADME; details: 37° C., read-out: Percentage remaining intact peptide (AUC by RP-HPLC) upon incubation with fasted-state simulated intestinal fluid (FASSIF/P)
Procedure: (§1) A fresh suspension of FASSIF/P (Fasted-State Simulated Intestinal Fluid+USP Pancreatin®) was prepared according to that described by Galia, Nicolaides, Hörter, Lobenberg, Reppas and Dressman: Pharm. Res. 15 (1998) 698-705. The resulting preparation is proteolytically equivalent to ˜375 units/mL (375 kU/L) and was used immediately without storage. Peptides for evaluation (1.0 mg, ˜250 nmoles) were initially dissolved in pre-warmed FASSIF without Pancreatin® (200 μL) to which was added pre-warmed fresh FASSIF/Pancreatin® (100 μL) to initiate potential digestion. Following momentary vortexing of the Eppendorf reaction tube the mixture was incubated at 37° C. in a thermostatic waterbath for the duration of the experiment. 25 μL aliquots of the co-incubated peptide-enzyme mixture were periodically withdrawn (t=0, 5 m, 10 m, 15 m, 30 m, 1 h, 2 h) and quenched immediately by addition to a solution of 10% TFA in 1:1 water/acetonitrile (75 μL) to arrest proteolytic activity.

[6] = system: FASSIF/P (Fasted-State Simulated Intestinal Fluid+USP Pancreatin®); experiment: as above; type: in vitro ADME; details: t = 0; 37° C.
Procedure: as §1

With `CC[C@H](C)[C@H](NC(=O)[C@](C)(Cc1ccccc1)NC(=O)[C@H](CCC(=O)O)NC(=O)[C@](C)(CCCCN)NC(=O)[C@H](C)NC(=O)[C@H](C)NC(=O)[C@H](CCC(=O)O)NC(=O)CNC(=O)[C@H](CCC(=O)O)NC(=O)[C@H](CC(C)C)NC(=O)[C@](C)(Cc1ccccc1)NC(=O)[C@H](CO)NC(=O)[C@](C)(CO)NC(=O)[C@@H](NC(=O)[C@H](CC(=O)O)NC(=O)[C@H](CO)NC(=O)[C@@H](NC(=O)[C@](C)(Cc1ccccc1)NC(=O)[C@H](CO)NC(=O)CNC(=O)[C@H](CCC(=O)O)NC(=O)C(C)(C)NC(=O)[C@@H](N)Cc1c[nH]cn1)[C@@H](C)O)C(C)C)C(=O)N[C@@H](C)C(=O)N[C@@](C)(Cc1ccccc1)C(=O)N[C@H](C(=O)N[C@H](C(=O)N[C@@](C)(CCCCN)C(=O)NCC(=O)NCC(N)=O)C(C)C)C(C)C` [compound 17] the “Percentage remaining intact peptide (AUC by RP-HPLC) upon incubation with pepsin” value [1] was 100%, the “Percentage remaining intact peptide (AUC by RP-HPLC) upon incubation with α-chymotrypsin” value [2] was 100% and the remaining at 0.5 h [3] was 91.6%. The remaining at 1 h [3] was 87.2%, the remaining at 2 h [3] was 86.3% and the remaining at 4 h [3] was 86.6%. For the same compound, the remaining at 8 h [3] was 87.7%, the remaining at 24 h [3] was 82.1% and the “Percentage remaining peptide (AUC at specified time-point by RP-HPLC) upon incubation with neprilysin, t = 0” value (from here on “Percentage remaining peptide”) (recombinant Neprilysin) was 100%. The “Percentage remaining intact peptide (AUC by RP-HPLC) upon incubation with trypsin” value [4] was 100%.
For `CC[C@H](C)[C@H](NC(=O)[C@H](Cc1ccccc1)NC(=O)[C@H](CCC(=O)O)NC(=O)[C@H](CCCCNC(=O)COCCOCCNC(=O)COCCOCCNC(=O)CC[C@H](NC(=O)CCCCCCCCCCCCCCCCC(=O)O)C(=O)O)NC(=O)[C@H](C)NC(=O)[C@H](C)NC(=O)[C@H](CCC(=O)O)NC(=O)CNC(=O)[C@H](CCC(=O)O)NC(=O)[C@H](CC(C)C)NC(=O)[C@](C)(Cc1ccccc1)NC(=O)[C@H](CO)NC(=O)[C@](C)(CO)NC(=O)[C@@H](NC(=O)[C@H](CC(=O)O)NC(=O)[C@H](CO)NC(=O)[C@@H](NC(=O)[C@](C)(Cc1ccccc1)NC(=O)[C@H](CO)NC(=O)CNC(=O)[C@H](CCC(=O)O)NC(=O)C(C)(C)NC(=O)[C@@H](N)Cc1c[nH]cn1)[C@@H](C)O)C(C)C)C(=O)N[C@@H](C)C(=O)N[C@@](C)(Cc1ccccc1)C(=O)N[C@H](C(=O)N[C@H](C(=O)N[C@@](C)(CCCCN)C(=O)NCC(=O)NCC(N)=O)C(C)C)C(C)C` [compound 48], the “Percentage remaining intact peptide (AUC by RP-HPLC) upon incubation with pepsin” value [1] was 100%, the “Percentage remaining intact peptide (AUC by RP-HPLC) upon incubation with α-chymotrypsin” value [2] was 100% and the remaining at 0.5 h [3] was 97.8%. It also gave a remaining at 1 h [3] of 94.6%, a remaining at 2 h [3] of 90.9% and a remaining at 4 h [3] of 88.8%. For the same compound, the remaining at 8 h [3] was 89.4%, the remaining at 24 h [3] was 86.4% and the “Percentage remaining peptide” value (recombinant Neprilysin) was 100%. The “Percentage remaining intact peptide (AUC by RP-HPLC) upon incubation with trypsin” value [4] was 100.0%.
With `CC[C@H](C)[C@H](NC(=O)[C@H](Cc1ccccc1)NC(=O)[C@H](CCC(=O)O)NC(=O)[C@](C)(CCCCN)NC(=O)[C@H](C)NC(=O)[C@H](C)NC(=O)[C@H](CCC(=O)O)NC(=O)CNC(=O)[C@H](CCC(=O)O)NC(=O)[C@H](CC(C)C)NC(=O)[C@](C)(Cc1ccccc1)NC(=O)[C@H](CO)NC(=O)[C@](C)(CO)NC(=O)[C@@H](NC(=O)[C@H](CC(=O)O)NC(=O)[C@H](CO)NC(=O)[C@@H](NC(=O)[C@](C)(Cc1ccccc1)NC(=O)[C@H](CO)NC(=O)CNC(=O)[C@H](CCC(=O)O)NC(=O)C(C)(C)NC(=O)[C@@H](N)Cc1c[nH]cn1)[C@@H](C)O)C(C)C)C(=O)N[C@@H](CCCCNC(=O)COCCOCCNC(=O)COCCOCCNC(=O)CC[C@H](NC(=O)CCCCCCCCCCCCCCCCC(=O)O)C(=O)O)C(=O)N[C@@H](Cc1c[nH]c2ccccc12)C(=O)N[C@H](C(=O)N[C@H](C(=O)N[C@@H](CCC(=O)O)C(=O)NCC(=O)NCC(N)=O)C(C)C)C(C)C` [compound 68] (H-H[Aib]EGS[αMeF]TSDV[αMeS]S[αMeF]LEGEAA[αMeK]EFIK([AEEA-AEEA-γGlu-C18 diacid])WVVEGG-NH2; N-terminus assumed) the “Percentage remaining intact peptide (AUC by RP-HPLC) upon incubation with pepsin” value [1] was 100%, the “Percentage remaining peptide” value (recombinant Neprilysin) was 100% and the “Percentage remaining intact peptide (AUC by RP-HPLC) upon incubation with trypsin” value [4] was 100.0%.
Work on `CCCCCCCCCCCC(=O)N[C@@H](CCC(=O)NCCOCCOCC(=O)NCCOCCOCC(=O)NCCCC[C@H](NC(=O)[C@H](C)NC(=O)[C@@H](NC(=O)[C@H](Cc1ccc(OC)cc1)NC(=O)[C@H](CCC(=O)O)NC(=O)[C@](C)(CCCCN)NC(=O)[C@H](C)NC(=O)[C@H](C)NC(=O)[C@H](CCC(=O)O)NC(=O)CNC(=O)[C@H](CCC(=O)O)NC(=O)[C@H](CC(C)C)NC(=O)[C@H](CCCCNC(=O)COCCOCCNC(=O)COCCOCCNC(=O)CC[C@H](NC(=O)CCCCCCCCCCC)C(=O)O)NC(=O)[C@H](CO)NC(=O)[C@](C)(CO)NC(=O)[C@@H](NC(=O)[C@H](CC(=O)O)NC(=O)[C@H](CO)NC(=O)[C@@H](NC(=O)[C@](C)(Cc1ccccc1)NC(=O)[C@H](CO)NC(=O)CNC(=O)[C@H](CCC(=O)O)NC(=O)C(C)(C)NC(=O)[C@@H](N)Cc1c[nH]cn1)[C@@H](C)O)C(C)C)[C@@H](C)CC)C(=O)N[C@H](C(=O)N[C@H](C(=O)N[C@@H](CCC(=O)O)C(=O)NCC(=O)NCC(N)=O)C(C)C)C(C)C)C(=O)O` [compound 406] (H-H[Aib]EGS[αMeF]TSDV[αMeS]SK([AEEA-AEEA-γGlu-Lauroyl])LEGEAA[αMeK]EY(Me)IAK([AEEA-AEEA-γGlu-Lauroyl])VVEGG-NH2; N-terminus assumed) yielded a remaining at 5 min, […] ([5]; t = 5 m) of 93.9%, a remaining at 10 min, […] ([5]; t = 10 m) of 85.7% and a remaining at 0.25 h, […] ([5]; t = 15 m) of 75.9%. The remaining at 0.5 h, […] ([5]; t = 30 m) was 56.1%, the remaining at 1 h, […] ([5]; t = 1 h) was 33.2% and the remaining at 2 h, […] ([5]; t = 2 h) was 7.7%. For the same compound, the “Percentage remaining intact peptide (AUC by RP-HPLC) upon incubation with fasted-state simulated intestinal fluid (FASSIF/P)” value [6] was 100%.
For `CCCCCCCCCCCCCCCC(=O)NCCCC[C@H](NC(=O)CNC(=O)CNC(=O)[C@](C)(CCCCN)NC(=O)[C@@H](NC(=O)[C@@H](NC(=O)[C@](C)(Cc1ccccc1)NC(=O)[C@H](C)NC(=O)[C@@H](NC(=O)[C@](C)(Cc1ccccc1)NC(=O)[C@H](CCC(=O)O)NC(=O)[C@](C)(CCCCN)NC(=O)[C@H](C)NC(=O)[C@H](C)NC(=O)[C@H](CCC(N)=O)NC(=O)CNC(=O)[C@H](CCC(=O)O)NC(=O)[C@H](CC(C)C)NC(=O)[C@](C)(Cc1ccccc1)NC(=O)[C@H](CO)NC(=O)[C@H](CO)NC(=O)[C@@H](NC(=O)[C@H](CC(=O)O)NC(=O)[C@H](CO)NC(=O)[C@@H](NC(=O)[C@](C)(Cc1ccccc1)NC(=O)[C@H](CO)NC(=O)CNC(=O)[C@H](CCC(=O)O)NC(=O)C(C)(C)NC(=O)[C@@H](N)Cc1c[nH]cn1)[C@@H](C)O)C(C)C)[C@@H](C)CC)C(C)C)C(C)C)C(N)=O` [compound 489] (H-H[Aib]EGS[αMeF]TSDVSS[αMeF]LEGQAA[αMeK]E[αMeF]IA[αMeF]VV[αMeK]GGK(Palmitoyl)-NH2), the “Percentage remaining intact peptide (AUC by RP-HPLC) upon incubation with pepsin” value [1] was 100%, the “Percentage remaining peptide” value (recombinant Neprilysin) was 100% and the “Percentage remaining intact peptide (AUC by RP-HPLC) upon incubation with trypsin” value [4] was 100%.
